Measurements taken from patent publication US20240173307A1, “MODULATORS OF THE INTEGRATED STRESS PATHWAY” (Calico Life Sciences LLC, priority 2017, published 2024).

Each compound was assayed on HEK293T cells carrying the ATF4 luciferase reporter (assay: ATF4-Luc assay (in vitro model of vanishing white matter disease)). Settings: Homo sapiens, HEK-293T, 1 μg/mL tunicamycin, 7 hours.
Assay type: cell-based
Experimental: In order to test exemplary compounds of the invention in a cellular context, a stable VWMD cell line was first constructed. The ATF4 reporter was prepared by fusing the human full-length ATF4 5′-UTR (NCBI Accession No. BCO22088.2) in front of the firefly luciferase (FLuc) coding sequence lacking the initiator methionine as described in Sidrauski et al (eLife 2013). The construct was used to produce recombinant retroviruses using standard methods and the resulting viral supernatant was used to transduce HEK293T cells, which were then subsequently selected with puromycin to generate a stable cell line.
HEK293T cells carrying the ATF4 luciferase reporter were plated on polylysine coated 384-well plates (Greiner Bio-one) at 30,000 cells per well. Cells were treated the next day with 1 μg/mL tunicamycin and 200 nM of a compound of Formula (I) for 7 hours. Luminescence was measured using One Glo (Promega) as specified by the manufacturer. Cells were maintained in DMEM with L-glutamine supplemented with 10% heat-inactivated FBS (Gibco) and Antibiotic-Antimycotic solution (Gibco).
Table 2 below summarizes the EC50 data obtained using the ATF4-Luc assay for exemplary compounds of the invention.

**Q.** Which EC50 does the source give for `O=C(COc1ccc(Cl)c(Cl)c1)NC12CCC(C(=O)NCc3ccc(C(F)(F)F)cc3)(CC1)[C@H](O)C2` (single isomer, unassigned) [Compound 263] here?
**A.** The EC50 was under 250 nM.

**Q.** How did the EC50 turn out when `O=C(COc1ccc(Cl)c(Cl)c1)NC12CCC(C(=O)NCc3ccc(C(F)(F)F)cc3)(CC1)[C@@H](O)C2` (single isomer, unassigned) [Compound 264] was run?
**A.** Its EC50 is under 250 nM.

**Q.** For `O=C(COc1ccc(Cl)c(F)c1)NC12CCC(C(=O)NCc3ccc(C(F)(F)F)cc3)(CC1)[C@@H](O)C2` (single isomer, unassigned) [Compound 266], which EC50 is on record?
**A.** Its EC50 is under 250 nM.

**Q.** How did the EC50 turn out when `O=C(COc1ccc(Cl)c(F)c1)NC12CCC(C(=O)NCc3ccc(C(F)(F)F)cc3)(CC1)[C@H](O)C2` (single isomer, unassigned) [Compound 267] was run?
**A.** The EC50 was under 250 nM.

**Q.** How did the EC50 turn out when `O=C(COc1ccc(Cl)c(F)c1)NC12CCC(C(=O)NCc3ccc(C(F)(F)F)cc3)(CC1)C[C@H]2O` (single isomer, unassigned) [Compound 269] was run?
**A.** Its EC50 is under 250 nM.

**Q.** How did the EC50 turn out when `O=C(COc1ccc(Cl)c(F)c1)NC12CCC(C(=O)NCc3ccc(C(F)(F)F)cc3)(CC1)C[C@@H]2O` (single isomer, unassigned) [Compound 270] was run?
**A.** Its EC50 is under 250 nM.

**Q.** For `O=C(COc1ccc(Cl)c(F)c1)NC12CCC(C(=O)NCc3ccc(C(F)(F)F)cn3)(CC1)C[C@H]2O` (single isomer, unassigned) [Compound 271], which EC50 is on record?
**A.** Its EC50 is under 250 nM.

**Q.** Which EC50 does the source give for `O=C(COc1ccc(Cl)c(F)c1)NC12CCC(C(=O)NCc3ccc(C(F)(F)F)cn3)(CC1)C[C@@H]2O` (single isomer, unassigned) [Compound 272] here?
**A.** Its EC50 is under 250 nM.

**Q.** With `O=C(COc1ccc(Cl)c(F)c1)NC12CCC(C(=O)NCc3ccc(C(F)(F)F)cc3)(CC1)C(O)C2` (stereo not drawn) [Compound 110, 4-[2-(4-chloro-3-fluorophenoxy)acetamido]-2-hydroxy-N-{[4-(trifluoromethyl)phenyl]methyl}bicyclo[2.2.2]octane-1-carboxamide] as the compound, how does the EC50 read?
**A.** Its EC50 is under 250 nM.

**Q.** With `O=C(COc1ccc(Cl)c(F)c1)NC12CC(C(=O)NCc3cnccn3)(C1)C2` [Compound 164, 3-[2-(4-chloro-3-fluorophenoxy)acetamido]-N-[(pyrazin-2-yl)methyl]bicyclo[1.1.1]pentane-1-carboxamide] as the compound, how does the EC50 read?
**A.** The EC50 was over 2000 nM.

**Q.** Which EC50 does the source give for `O=C(COc1ccc(Cl)c(F)c1)NC12CC(C(=O)NCCc3c[nH]c4ccccc34)(C1)C2` [Compound 194, 3-[2-(4-chloro-3-fluorophenoxy)acetamido]-N-[2-(1H-indol-3-yl)ethyl]bicyclo[1.1.1]pentane-1-carboxamide] here?
**A.** The EC50 was under 250 nM.

**Q.** How did the EC50 turn out when `O=C(COc1ccc(Cl)c(F)c1)NC12CC(C(=O)NCCCc3cccnc3)(C1)C2` [Compound 253, 3-[2-(4-chloro-3-fluorophenoxy)acetamido]-N-[3-(pyridin-3-yl)propyl]bicyclo[1.1.1]pentane-1-carboxamide] was run?
**A.** Its EC50 is 1000 to 2000 nM.

**Q.** `O=C(COc1ccc(Cl)c(F)c1)NC12CC(C(=O)NCCCc3ccccn3)(C1)C2` [Compound 254, 3-[2-(4-chloro-3-fluorophenoxy)acetamido]-N-[3-(pyridin-2-yl)propyl]bicyclo[1.1.1]pentane-1-carboxamide] was tested. Which EC50 did it give?
**A.** Its EC50 is 1000 to 2000 nM.

**Q.** For `O=C(COc1ccc(Cl)c(Cl)c1)NC12CCC(C(=O)NCc3ccc(C(F)(F)F)cc3)(CC1)C(O)C2` (stereo not drawn) [Compound 255, 4-[2-(3,4-dichlorophenoxy)acetamido]-2-hydroxy-N-{[4-(trifluoromethyl)phenyl]methyl}bicyclo[2.2.2]octane-1-carboxamide], which EC50 is on record?
**A.** The EC50 was under 250 nM.

**Q.** With `O=C(COc1ccc(Cl)c(F)c1)NC12CCC(C(=O)NCc3ccc(OC(F)F)cn3)(C1)C2` [Compound 256, 4-[2-(4-chloro-3-fluorophenoxy)acetamido]-N-{[5-(difluoromethoxy)pyridin-2-yl]methyl}bicyclo[2.1.1]hexane-1-carboxamide] as the compound, how does the EC50 read?
**A.** The EC50 was 1000 to 2000 nM.

**Q.** `O=C(COc1ccc(Cl)c(F)c1)NC12CCC(C(=O)NCc3ccc(Cl)cn3)(CC1)CC2` [Compound 257, 4-[2-(4-chloro-3-fluorophenoxy)acetamido]-N-[(5-chloropyridin-2-yl)methyl]bicyclo[2.2.2]octane-1-carboxamide] was tested. Which EC50 did it give?
**A.** The EC50 was under 250 nM.

**Q.** How did the EC50 turn out when `Cc1cnc(CNC(=O)C23CCC(NC(=O)COc4ccc(Cl)c(F)c4)(CC2)CC3)cn1` [Compound 258, 4-[2-(4-chloro-3-fluorophenoxy)acetamido]-N-[(5-methylpyrazin-2-yl)methyl]bicyclo[2.2.2]octane-1-carboxamide] was run?
**A.** The EC50 was 500 to 1000 nM.

**Q.** Which EC50 does the source give for `O=C(COc1ccc(Cl)c(F)c1)NC12CCC(C(=O)NCc3ccccn3)(CC1)CC2` [Compound 259, 4-[2-(4-chloro-3-fluorophenoxy)acetamido]-N-[(pyridin-2-yl)methyl]bicyclo[2.2.2]octane-1-carboxamide] here?
**A.** The EC50 was 500 to 1000 nM.

**Q.** Which EC50 does the source give for `O=C(COc1ccc(Cl)c(F)c1)NC12CCC(C(=O)NCc3ccc(Cl)cc3)(CC1)CC2` [Compound 260, 4-[2-(4-chloro-3-fluorophenoxy)acetamido]-N-[(4-chlorophenyl)methyl]bicyclo[2.2.2]octane-1-carboxamide] here?
**A.** Its EC50 is under 250 nM.

**Q.** Which EC50 does the source give for `O=C(COc1ccc(Cl)c(F)c1)NC12CCC(C(=O)NCc3ccc(C(F)(F)F)cn3)(CC1)CC2` [Compound 261, 4-[2-(4-chloro-3-fluorophenoxy)acetamido]-N-{[5-(trifluoromethyl)pyridin-2-yl]methyl}bicyclo[2.2.2]octane-1-carboxamide] here?
**A.** The EC50 was under 250 nM.

**Q.** Which EC50 does the source give for `O=C(COc1ccc(Cl)c(F)c1)NC12CCC(C(=O)NCc3ccc(OC(F)F)nc3)(CC1)CC2` [Compound 262, 4-[2-(4-chloro-3-fluorophenoxy)acetamido]-N-{[6-(difluoromethoxy)pyridin-3-yl]methyl}bicyclo[2.2.2]octane-1-carboxamide] here?
**A.** Its EC50 is under 250 nM.

**Q.** With `O=C(COc1ccc(Cl)c(F)c1)NC12CCC(C(=O)NCc3ccc(OC(F)F)cn3)(CC1)CC2` [Compound 265, 4-[2-(4-chloro-3-fluorophenoxy)acetamido]-N-{[5-(difluoromethoxy)pyridin-2-yl]methyl}bicyclo[2.2.2]octane-1-carboxamide] as the compound, how does the EC50 read?
**A.** Its EC50 is under 250 nM.

**Q.** With `O=C(COc1ccc(Cl)c(F)c1)NC12CCC(C(=O)Nc3ccc(OC(F)F)nc3)(C1)C2` [Compound 268, 4-[2-(4-chloro-3-fluorophenoxy)acetamido]-N-[6-(difluoromethoxy)pyridin-3-yl]bicyclo[2.1.1]hexane-1-carboxamide] as the compound, how does the EC50 read?
**A.** Its EC50 is 250 to 500 nM.

**Q.** `O=C(COc1ccc(Cl)c(F)c1)NC12CCC(C(=O)NCC(=O)c3ccc(Cl)cc3)(CC1)[C@@H](O)C2` [Compound 273, (2S)-4-[2-(4-chloro-3-fluorophenoxy)acetamido]-N-[2-(4-chlorophenyl)-2-oxoethyl]-2-hydroxybicyclo[2.2.2]octane-1-carboxamide] was tested. Which EC50 did it give?
**A.** The EC50 was under 250 nM.

**Q.** Which EC50 does the source give for `O=C(COc1ccc(Cl)c(F)c1)NC12CCC(C(=O)NCc3ccc(C(F)(F)F)cc3)(CC1)CC2O` (stereo not drawn) [Compound 274, 4-[2-(4-chloro-3-fluorophenoxy)acetamido]-3-hydroxy-N-{[4-(trifluoromethyl)phenyl]methyl}bicyclo[2.2.2]octane-1-carboxamide] here?
**A.** Its EC50 is under 250 nM.

**Q.** For `O=C(COc1ccc(Cl)c(F)c1)NC12CCC(C(=O)NCc3ccc(C(F)(F)F)cn3)(CC1)CC2O` (stereo not drawn) [Compound 275, 4-[2-(4-chloro-3-fluorophenoxy)acetamido]-3-hydroxy-N-{[5-(trifluoromethyl)pyridin-2-yl]methyl}bicyclo[2.2.2]octane-1-carboxamide], which EC50 is on record?
**A.** Its EC50 is under 250 nM.

**Q.** With `O=C(COc1ccc(Cl)c(F)c1)NC12CCC(C(=O)NCC(=O)c3ccc(Cl)cc3)(CC1)[C@H](O)C2` [Compound 276, (2R)-4-[2-(4-chloro-3-fluorophenoxy)acetamido]-N-[2-(4-chlorophenyl)-2-oxoethyl]-2-hydroxybicyclo[2.2.2]octane-1-carboxamide] as the compound, how does the EC50 read?
**A.** Its EC50 is under 250 nM.

**Q.** `O=C(CNC(=O)C12CCC(NC(=O)COc3ccc(Cl)c(F)c3)(CC1)C[C@@H]2O)Cc1ccccc1` [Compound 277, (2S)-4-[2-(4-chloro-3-fluorophenoxy)acetamido]-2-hydroxy-N-(2-oxo-3-phenylpropyl)bicyclo[2.2.2]octane-1-carboxamide] was tested. Which EC50 did it give?
**A.** The EC50 was under 250 nM.

**Q.** For `O=C(COc1ccc(Cl)c(F)c1)NC12CCC(C(=O)Nc3ccc(OC(F)F)nc3)(CC1)CC2` [Compound 278, 4-[2-(4-chloro-3-fluorophenoxy)acetamido]-N-[6-(difluoromethoxy)pyridin-3-yl]bicyclo[2.2.2]octane-1-carboxamide], which EC50 is on record?
**A.** Its EC50 is under 250 nM.

**Q.** For `O=C(COc1ccc(Cl)c(F)c1)NC12CCC(C(=O)Nc3ccc(OC(F)(F)F)cn3)(CC1)CC2` [Compound 279, 4-[2-(4-chloro-3-fluorophenoxy)acetamido]-N-[5-(trifluoromethoxy)pyridin-2-yl]bicyclo[2.2.2]octane-1-carboxamide], which EC50 is on record?
**A.** Its EC50 is under 250 nM.

**Q.** With `O=C(COc1ccc(Cl)c(F)c1)NC12CCC(C(=O)Nc3ccc(OC(F)(F)F)nc3)(CC1)CC2` [Compound 280, 4-[2-(4-chloro-3-fluorophenoxy)acetamido]-N-[6-(trifluoromethoxy)pyridin-3-yl]bicyclo[2.2.2]octane-1-carboxamide] as the compound, how does the EC50 read?
**A.** Its EC50 is under 250 nM.

**Q.** `O=C(COc1ccc(Cl)c(F)c1)NC12CCC(C(=O)Nc3ccc(OCC(F)(F)F)nc3)(CC1)CC2` [Compound 281, 4-[2-(4-chloro-3-fluorophenoxy)acetamido]-N-[6-(2,2,2-trifluoroethoxy)pyridin-3-yl]bicyclo[2.2.2]octane-1-carboxamide] was tested. Which EC50 did it give?
**A.** The EC50 was over 2000 nM.

**Q.** How did the EC50 turn out when `O=C(COc1ccc(Cl)c(F)c1)NC12CC(C(=O)Nc3ccc(OC(F)F)nc3)(C1)C2` [Compound 282, 3-[2-(4-chloro-3-fluorophenoxy)acetamido]-N-[6-(difluoromethoxy)pyridin-3-yl]bicyclo[1.1.1]pentane-1-carboxamide] was run?
**A.** Its EC50 is under 250 nM.
